# Test results taken from ChEMBL document CHEMBL5634070, “Assessment of the structure-activity relationship and antileukemic activity of diacylpyramide compounds as human ClpP agonists” (Eur J Med Chem, 2023).
# Activity calls are given as the source filed them. The calls are words filed in the database; no cut-off is given here.
# What was measured:
# NB-4 [1] = test: Antiproliferative activity against human NB4 cells assessed as inhibition of cell growth incubated for 72 hrs by CCK-8 assay; assay type: functional, cell-based; details: NB-4, 72 h
# NB-4 [2] = test: Antileukemic activity against human NB4 cells assessed as reduction in mitochondrial DNA content at 10 uM incubated for 24 hrs; assay type: functional, cell-based
# NB-4 [3] = test: Antileukemic activity against human NB4 cells xenografted in BALB/c mouse assessed as reduction in tumor weight at 30 mg/kg,ip administrated for 30 days; assay type: functional, organism-based; details: time 30.0 day
# MV4-11 [4] = test: Antiproliferative activity against human MV4-11 cells cultured as 3D cells assessed as inhibition of cell growth; assay type: functional, cell-based
# MOLM-13 [5] = test: Inhibition of mitochondrial respiration in human MOLM-13 cells assessed as reduction in oxygen consumption rate at 5 uM incubated for 24 hrs; assay type: functional, cell-based
# MV4-11 [6] = test: Antileukemic activity against human MV4-11 cells xenografted in BALB/c mouse assessed as reduction in tumor weight at 30 mg/kg,ip administrated for 30 days; assay type: functional, organism-based; details: time 30.0 day
# HEL [7] = test: Antileukemic activity against human HEL cells assessed as reduction in mitochondrial DNA content at 10 uM incubated for 24 hrs; assay type: functional, cell-based
# MOLM-13 [8] = test: Antileukemic activity against human MOLM-13 cells assessed as reduction in mitochondrial DNA content at 10 uM incubated for 24 hrs; assay type: functional, cell-based
# [9] = molecular target: T1, ATP-dependent Clp protease proteolytic subunit, mitochondrial (Homo sapiens, UniProt Q16740); test: Binding affinity to CLpP in human HEL cells assessed as thermal stabilization at 10 uM at 52.9 to 78 degreeC by cellular thermal shift assay; assay type: cell-based; details: filed as agonist
# T1 sequence (Q16740 whole entry): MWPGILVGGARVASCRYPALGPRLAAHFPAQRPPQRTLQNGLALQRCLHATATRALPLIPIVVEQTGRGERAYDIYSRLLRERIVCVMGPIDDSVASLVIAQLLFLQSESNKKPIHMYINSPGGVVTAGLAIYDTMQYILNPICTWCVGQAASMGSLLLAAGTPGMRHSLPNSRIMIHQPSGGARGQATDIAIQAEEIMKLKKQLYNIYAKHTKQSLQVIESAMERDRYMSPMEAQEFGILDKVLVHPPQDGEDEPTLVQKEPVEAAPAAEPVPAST
# NB-4 [10] = test: Induction of apoptosis in human NB4 cells incubated for 24 to 72 hrs; assay type: functional, cell-based; details: time 24-72 hrs
# NB-4 [11] = test: Antileukemic activity against human NB4 cells assessed as downregulation of SDHB protein expression incubated for 24 hrs by Western blotting analysis; assay type: functional, cell-based
# [12] = molecular target: T1, ATP-dependent Clp protease proteolytic subunit, mitochondrial; test: Agonist activity at human CLpP by measuring alpha-casein hydrolysis using alpha-casein as substrate by FITC staining based assay
# [13] = Toxicity in BALB/c mouse xenografted with human MV4-11 cells assessed as change in body weight at 60 mg/kg,ip administrated for 30 days; assay type: organism-based; details: in vivo, 720 h, time 30 day
# Cell membrane = test: Induction of mitochondrial membrane potential loss in human MOLM-13 cells at 10 uM incubated upto 48 hrs by TMRE staining based assay
# NB-4 [14] = test: Antileukemic activity against human NB4 cells assessed as downregulation of NDUFA12 protein expression incubated for 24 hrs by Western blotting analysis; assay type: functional, cell-based
# HEL [15] = test: Antiproliferative activity against human HEL cells assessed as inhibition of cell growth incubated for 72 hrs by CCK-8 assay; assay type: functional, cell-based
# NB-4 [16] = test: Inhibition of mitochondrial respiration in human NB4 cells assessed as reduction in oxygen consumption rate at 10 uM incubated for 24 hrs; assay type: functional, cell-based
# [17] = Toxicity in BALB/c mouse xenografted with human NB4 cells assessed as change in body weight at 60 mg/kg,ip administrated for 30 days; assay type: organism-based, NB-4; details: in vivo, 720 h, time 30 day
# MV4-11 [18] = test: Antileukemic activity against human MV4-11 cells xenografted in BALB/c mouse assessed as reduction in tumor volume at 60 mg/kg,ip administrated for 30 days; assay type: functional, organism-based; details: time 30.0 day
# MV4-11 [19] = test: Antiproliferative activity against human MV4-11 cells assessed as inhibition of cell growth incubated for 72 hrs by CCK-8 assay; assay type: functional, cell-based; details: MV4-11, 72 h
# MV4-11 [20] = test: Inhibition of mitochondrial respiration in human MV4-11 cells assessed as reduction in oxygen consumption rate at 10 uM incubated for 24 hrs; assay type: functional, cell-based
# MOLM-13 [21] = test: Antileukemic activity against human MOLM-13 cells assessed as reduction in cellular ATP content at 10 uM incubated upto 48 hrs; assay type: functional, cell-based
# MOLM-13 [22] = test: Inhibition of mitochondrial respiration in human MOLM-13 cells assessed as reduction in oxygen consumption rate at 10 uM incubated for 24 hrs; assay type: functional, cell-based
# [23] = Toxicity in BALB/c mouse xenografted with human NB4 cells assessed as change in body weight at 30 mg/kg,ip administrated for 30 days; assay type: organism-based, NB-4; details: in vivo, 720 h, time 30 day
# MOLM-13 [24] = test: Antiproliferative activity against human MOLM-13 cells assessed as inhibition of cell growth at 20 uM by CCK-8 assay relative to control; assay type: functional
# NB-4 [25] = test: Antileukemic activity against human NB4 cells assessed as downregulation of UQCRC2 protein expression incubated for 24 hrs by Western blotting analysis; assay type: functional, cell-based
# MOLM-13 [26] = test: Induction of apoptosis in human MOLM-13 cells incubated for 24 to 72 hrs; assay type: functional, cell-based; details: time 24-72 hrs
# NB-4 [27] = test: Antileukemic activity against human NB4 cells assessed as downregulation of NDUFB8 protein expression incubated for 24 hrs by Western blotting analysis; assay type: functional, cell-based
# [28] = Toxicity in BALB/c mouse xenografted with human MV4-11 cells assessed as change in body weight at 30 mg/kg,ip administrated for 30 days; assay type: organism-based; details: in vivo, 720 h, time 30 day
# NB-4 [29] = test: Antileukemic activity against human NB4 cells xenografted in BALB/c mouse assessed as reduction in tumor volume at 30 mg/kg,ip administrated for 30 days; assay type: functional, organism-based; details: time 30.0 day
# [30] = molecular target: T1, ATP-dependent Clp protease proteolytic subunit, mitochondrial; test: Binding affinity to human CLpP assessed as change in melting temperature by DSF assay; details: filed as agonist
# NB-4 [31] = test: Inhibition of mitochondrial respiration in human NB4 cells assessed as reduction in oxygen consumption rate at 5 uM incubated for 24 hrs; assay type: functional, cell-based
# NB-4 [32] = test: Antileukemic activity against human NB4 cells assessed as downregulation of NDUFV2 protein expression incubated for 24 hrs by Western blotting analysis; assay type: functional, cell-based
# NB-4 [33] = test: Inhibition of colony formation in human NB4 cells incubated for 14 days; assay type: functional, cell-based; details: time 14.0 day
# [34] = molecular target: T1, ATP-dependent Clp protease proteolytic subunit, mitochondrial; test: Binding affinity to CLpP in human MV4-11 cells assessed as thermal stabilization at 10 uM at 52.9 to 78 degreeC by cellular thermal shift assay; assay type: cell-based; details: filed as agonist
# MOLM-13 [35] = test: Antiproliferative activity against human MOLM-13 cells assessed as inhibition of cell growth incubated for 72 hrs by CCK-8 assay; assay type: functional, cell-based; details: MOLM-13, 72 h
# MV4-11 [36] = test: Antileukemic activity against human MV4-11 cells xenografted in BALB/c mouse assessed as reduction in tumor weight at 60 mg/kg,ip administrated for 30 days; assay type: functional, organism-based; details: time 30.0 day
# NB-4 [37] = test: Antileukemic activity against human NB4 cells assessed as downregulation of SDHA protein expression incubated for 24 hrs by Western blotting analysis; assay type: functional, cell-based
# MV4-11 [38] = test: Antileukemic activity against human MV4-11 cells assessed as reduction in mitochondrial DNA content at 10 uM incubated for 24 hrs; assay type: functional, cell-based
# [39] = molecular target: T1, ATP-dependent Clp protease proteolytic subunit, mitochondrial; test: Agonist activity at human CLpP by measuring alpha-casein hydrolysis using alpha-casein as substrate preincubated for 10 mins followed by substrate addition and measured after 120 mins by Coomassie brilliant blue staining based SDS-PAGE assay
# MV4-11 [40] = test: Inhibition of mitochondrial respiration in human MV4-11 cells assessed as reduction in oxygen consumption rate at 5 uM incubated for 24 hrs; assay type: functional, cell-based
# NB-4 [41] = test: Antileukemic activity against human NB4 cells xenografted in BALB/c mouse assessed as reduction in tumor weight at 60 mg/kg,ip administrated for 30 days; assay type: functional, organism-based; details: time 30.0 day
# MV4-11 [42] = test: Antileukemic activity against human MV4-11 cells xenografted in BALB/c mouse assessed as reduction in tumor volume at 30 mg/kg,ip administrated for 30 days; assay type: functional, organism-based; details: time 30.0 day
# MV4-11 [43] = test: Induction of apoptosis in human MV4-11 cells incubated for 24 to 72 hrs; assay type: functional, cell-based; details: time 24-72 hrs
# NB-4 [44] = test: Antileukemic activity against human NB4 cells xenografted in BALB/c mouse assessed as reduction in tumor volume at 60 mg/kg,ip administrated for 30 days; assay type: functional, organism-based; details: time 30.0 day
# [45] = molecular target: T1, ATP-dependent Clp protease proteolytic subunit, mitochondrial; test: Binding affinity to CLpP in human MOLM-13 cells assessed as thermal stabilization at 10 uM at 52.9 to 78 degreeC by cellular thermal shift assay; assay type: cell-based; details: filed as agonist
structure (smiles),measurement,setting,value
CC[C@H](C)[C@H]1C(=O)N(Cc2ccc(OC)c3ccccc23)C[C@@H]2N(C(=O)NCc3ccc(Br)cc3)CCC(=O)N12,IC50,NB-4 [1],4.9 µM
same,Activity,NB-4 [2],Active
same,Activity,NB-4 [3],Active
same,Activity,MV4-11 [4],Dose-Dependent Effect
same,inhibition,MOLM-13 [5],Active
same,Activity,MV4-11 [6],Active
same,Activity,HEL [7],Active
same,Activity,MOLM-13 [8],Active
same,Activity,[9],Active
same,Activity,NB-4 [10],Active
same,Activity,NB-4 [11],Dose-Dependent Effect
same,EC50,[12],0.54 µM
same,Activity,[13],Non-Toxic
same,Activity,Cell membrane,Active
same,Activity,NB-4 [14],Dose-Dependent Effect
same,IC50,HEL [15],3.3 µM
same,inhibition,NB-4 [16],Active
same,Activity,[17],Non-Toxic
same,Activity,MV4-11 [18],Active
same,IC50,MV4-11 [19],5.8 µM
same,inhibition,MV4-11 [20],Active
same,Activity,MOLM-13 [21],Active
same,inhibition,MOLM-13 [22],Active
same,Activity,[23],Non-Toxic
same,inhibition at 20 µM,MOLM-13 [24],99.6%
same,Activity,NB-4 [25],Dose-Dependent Effect
same,Activity,MOLM-13 [26],Active
same,Activity,NB-4 [27],Dose-Dependent Effect
same,Activity,[28],Non-Toxic
same,Activity,NB-4 [29],Active
same,ΔTm,[30],21.8 °C
same,inhibition,NB-4 [31],Active
same,Activity,NB-4 [32],Dose-Dependent Effect
same,inhibition,NB-4 [33],Dose-Dependent Effect
same,Activity,[34],Active
same,IC50,MOLM-13 [35],2.9 µM
same,Activity,MV4-11 [36],Active
same,Activity,NB-4 [37],Dose-Dependent Effect
same,Activity,MV4-11 [38],Active
same,EC50,[39],2.2 µM
same,inhibition,MV4-11 [40],Active
same,Activity,NB-4 [41],Active
same,Activity,MV4-11 [42],Active
same,Activity,MV4-11 [43],Active
same,Activity,NB-4 [44],Active
same,Activity,[45],Active
